Assay results published in patent publication US20080119488A1, “Modulators Of Nuclear Receptors” (EXELIXIS, INC., priority 2004, published 2008).
pKd: −log10 of the molar value.

Molecular target: T1, LXRα or LXRβ
T1 construct: fused on or other part: N-terminal poly-His tag from the pBacPakhis1 vector
Test: Saturation binding of [3H] 24,25 epoxycholesterol (EC) to the receptor
Set-up: species or system human
Conditions: as determined by saturation binding; typical value used for the Cheng and Prusoff equation
Method: The SPA assay measures the radioactive signal generated by the binding of ^3H-24,25-epoxycholesterol to LXRα or LXRβ. The basis of the assay is the use of SPA beads containing a scintillant, such that when binding to the receptor brings the labeled ligand into proximity with the bead, the energy from the label stimulates the scintillant to emit light. The light is measured using a standard microplate scintillation reader. The ability of a ligand to bind to a receptor can be measured by assessing the degree to which the compound can compete off a radiolabelled ligand with known affinity for the receptor.
For this assay, typically the Concentration of Ligand=50 nM and the Kd of EC for the receptor is 200 nM as determined by saturation binding.

C[C@H](CCC1OC1(C)C)[C@H]1CC[C@H]2[C@@H]3CC=C4C[C@@H](O)CC[C@]4(C)[C@H]3CC[C@]12C (stereo partly shown) [EC, 24,25 Epoxycholesterol]
pKd: 6.70
